Measurements reported in patent EP2033962A1, “Tetracyclic indolopyridines as EG5 inhibitors” (4SC AG, priority 2007, dated 2009).

Each molecule was assayed on RKO p27 uninduced (proliferating) (assay: Alamar Blue cell viability assay, anti-proliferative / cytotoxic activity on proliferating cells). Settings: Homo sapiens, RKOp27; RKO colon cancer cells, absence of the inducer Ponasterone A, 72 hours incubation; read-out: -log EC50 [mol/l] RKO p27 uninduced (proliferating) (converted).
Format: cell-based
Protocol: The anti-proliferative / cytotoxic activity of the compounds described herein can be tested on subclones of RKO human colon adenocarcinoma cells (Schmidt et al., Oncogene 19, 2423-2429; 2000) using the Alamar Blue cell viability assay (described in O'Brien et al. Eur J Biochem 267, 5421-5426, 2000). The compounds are dissolved as 10 mM solutions in DMSO and subsequently diluted in semi-logarithmic steps. DMSO dilutions are further diluted 1:100 v:v into Dulbecco's modified Eagle's medium (DMEM) containing 10% fetal calf serum to a final concentration twice as much as the final concentration in the test. RKO subclones are seeded into 96 well flat bottom plates at a density of 4000 cells per well in a volume of 50 µl per well. 24 hours after seeding the 50 µl each of the compound dilutions in DMEM medium are added into each well of the 96 well plate. Each compound dilution is tested as triplicates. Wells containing untreated control cells are filled with 50 µl DMEM medium containing 1% DMSO. The cells are then incubated with the substances for 72 hours at 37°C in a humidified atmosphere containing 5% carbon dioxide. To determine the viability of the cells, 10 µl of an Alamar Blue solution (Biosource) are added and the fluorescence is measured at an extinction of 544 nm and an emission of 590 nm. For the calculation of the cell viability the emission value from untreated cells is set as 100% viability and the emission rates of treated cells are set in relation to the values of untreated cells. Viabilities are expressed as % values. The Graphpad Prism program is used for the calculation of EC50 values for anti-proliferative / cytotoxic activity out of the obtained dose-response curves.
To determine the cell cycle specific mode of action, subclones of RKO colon adenocarcinoma cells (RKOp21 or RKOp27 as described by Schmidt et al. in Oncogene 19, 2423-2429; 2000) are seeded into 96 well flat bottom plates at a density of 16000 cells per well in a volume of 50 µl per well in DMEM growth medium with 10% FCS containing 10 µM Ponasterone A. 24 hours after seeding the 50 µl each of the compound dilutions in DMEM medium are added into each well of the 96-well plate. Each compound dilution is tested as triplicates. Wells containing untreated control cells are filled with 50 µl DMEM medium containing 1% DMSO. The cells are then incubated with the substances for 72 hours at 37°C in a humidified atmosphere containing 5% carbon dioxide. To determine the viability of the cells, 10 µl of an Alamar Blue solution (Biosource) are added and the fluorescence is measured at an extinction of 544 nm and an emission of 590 nm. For the calculation of the cell viability the emission value from untreated cells is set as 100% viability and the emission rates of treated cells are set in relation to the values of untreated cells. Viabilities are expressed as % values. The Graphpad Prism program (GraphPad Software, Inc) is used for the calculation of EC50 values out of the obtained dose-response curves. Viability is compared of proliferating cells grown in the absence of the inducer Ponasterone A, versus viability of cells arrested by the expression of ectopic p27Kip1 induced by Ponasterone A.

SMILES | EC50 [nM]
O=C1[C@@H]2Cc3c([nH]c4ccccc34)[C@@H](c3cccc(O)c3)N2C(=O)CN1CCN1CCCC1 (racemic) [Example 6, (6RS,12aSR)-6-(3-Hydroxy-phenyl)-2-(2-pyrrolidin-1-yl-ethyl)-2,3,6,7,12,12a-hexahydro-pyrazino[1',2':1,6]pyrido[3,4-b]indole-1,4-dione] | 100 to 1000
O=C1[C@@H]2Cc3c([nH]c4ccccc34)[C@@H](c3cccc(O)c3)N2C(=O)CN1CCN1CCCCC1 (racemic) [Example 7, (6RS,12aSR)-6-(3-Hydroxy-phenyl)-2-(2-piperidin-1-yl-ethyl)-2,3,6,7,12,12a-hexahydro-pyrazino[1',2':1,6]pyrido[3,4-b]indole-1,4-dione] | 100 to 1000
COc1ccc2[nH]c3c(c2c1)C[C@@]1(C)C(=O)N(CCN(C)C)CC(=O)N1[C@@H]3c1cccc(O)c1 (racemic) [Example 8, (6RS,12aSR)-2-(2-Dimethylamino-ethyl)-6-(3-hydroxy-phenyl)-10-methoxy-12a-methyl-2,3,6,7,12,12a-hexahydro-pyrazino[1',2':1,6]pyrido[3,4-b]indole-1,4-dione] | ≤ 100
COc1ccc2[nH]c3c(c2c1)C[C@@]1(C)C(=O)N(CCN2CCCC2)CC(=O)N1[C@@H]3c1cccc(O)c1 (racemic) [Example 9, (6RS,12aSR)-6-(3-Hydroxy-phenyl)-10-methoxy-12a-methyl-2-(2-pyrrolidin-1-yl-ethyl)-2,3,6,7,12,12a-hexahydro-pyrazino[1',2':1,6]pyrido[3,4-b]indole-1,4-dione] | ≤ 100
COc1ccc2[nH]c3c(c2c1)C[C@@]1(C)C(=O)N(C)CC(=O)N1[C@@H]3c1cccc(O)c1 (racemic) [Example 10, (6RS,12aSR)-6-(3-Hydroxy-phenyl)-10-methoxy-2,12a-dimethyl-2,3,6,7,12,12a-hexahydro-pyrazino[1',2':1,6]pyrido[3,4-b]indole-1,4-dione] | 100 to 1000
COc1ccc2[nH]c3c(c2c1)C[C@@]1(C)C(=O)N(CCN2CCCCC2)CC(=O)N1[C@@H]3c1cccc(O)c1 (racemic) [Example 11, (6RS,12aSR)-6-(3-Hydroxy-phenyl)-10-methoxy-12a-methyl-2-(2-piperidin-1-yl-ethyl)-2,3,6,7,12,12a-hexahydro-pyrazino[1',2':1,6]pyrido[3,4-b]indole-1,4-dione] | ≤ 100
COc1ccc2[nH]c3c(c2c1)C[C@@]1(C)C(=O)N(CCCN(C)C)CC(=O)N1[C@@H]3c1cccc(O)c1 (racemic) [Example 12, (6RS,12aSR)-2-(3-Dimethylamino-n-propyl)-6-(3-hydroxy-phenyl)-10-methoxy-12a-methyl-2,3,6,7,12,12a-hexahydro-pyrazino[1',2':1,6]pyrido[3,4-b]indole-1,4-dione] | ≤ 100
COc1ccc2[nH]c3c(c2c1)C[C@@]1(C)C(=O)N(CCN2CCOCC2)CC(=O)N1[C@@H]3c1cccc(O)c1 (racemic) [Example 13, (6RS,12aSR)-6-(3-Hydroxy-phenyl)-10-methoxy-12a-methyl-2-(2-morpholin-4-yl-ethyl)-2,3,6,7,12,12a-hexahydro-pyrazino[1',2':1,6]pyrido[3,4-b]indole-1,4-dione] | 100 to 1000
COc1ccc2[nH]c3c(c2c1)C[C@@]1(C)C(=O)N(CCCN2CCOCC2)CC(=O)N1[C@@H]3c1cccc(O)c1 (racemic) [Example 14, (6RS,12aSR)-6-(3-Hydroxy-phenyl)-10-methoxy-12a-methyl-2-(3-morpholin-4-yl-n-propyl)-2,3,6,7,12,12a-hexahydro-pyrazino[1',2':1,6]pyrido[3,4-b]indole-1,4-dione] | 100 to 1000
CCN(CC)CCN1CC(=O)N2[C@H](c3cccc(O)c3)c3[nH]c4ccc(OC)cc4c3C[C@@]2(C)C1=O (racemic) [Example 15, (6RS,12aSR)-2-(2-Diethylamino-ethyl)-6-(3-hydroxy-phenyl)-10-methoxy-12a-methyl-2,3,6,7,12,12a-hexahydro-pyrazino[1',2':1,6]pyrido[3,4-b]indole-1,4-dione] | 100 to 1000
CCN(CC)CCCN1CC(=O)N2[C@H](c3cccc(O)c3)c3[nH]c4ccc(OC)cc4c3C[C@@]2(C)C1=O (racemic) [Example 16, (6RS,12aSR)-2-(3-Diethylamino-n-propyl)-6-(3-hydroxy-phenyl)-10-methoxy-12a-methyl-2,3,6,7,12,12a-hexahydro-pyrazino[1',2':1,6]pyrido[3,4-b]indole-1,4-dione] | ≤ 100
COc1ccc2[nH]c3c(c2c1)C[C@@]1(C)C(=O)N(CCN(C(C)C)C(C)C)CC(=O)N1[C@@H]3c1cccc(O)c1 (racemic) [Example 19, (6RS,12aSR)-2-(2-Diisopropylamino-ethyl)-6-(3-hydroxy-phenyl)-10-methoxy-12a-methyl-2,3,6,7,12,12a-hexahydro-pyrazino[1',2':1,6]pyrido[3,4-b]indole-1,4-dione] | ≤ 100
COc1ccc2[nH]c3c(c2c1)C[C@@]1(C)C(=O)N(CCNC(C)C)CC(=O)N1[C@@H]3c1cccc(O)c1 (racemic) [Example 25, (6RS,12aSR)-6-(3-Hydroxy-phenyl)-2-(2-isopropylamino-ethyl)-10-methoxy-12a-methyl-2,3,6,7,12,12a-hexahydro-pyrazino[1',2':1,6]pyrido[3,4-b]indole-1,4-dione] | ≤ 100
COc1ccc2[nH]c3c(c2c1)C[C@@]1(C)C(=O)N(CCCN2CCCCC2)CC(=O)N1[C@@H]3c1cccc(O)c1 (racemic) [Example 27, (6RS,12aSR)-6-(3-Hydroxy-phenyl)-10-methoxy-12a-methyl-2-(3-piperidin-1-yl-n-propyl)-2,3,6,7,12,12a-hexahydro-pyrazino[1',2':1,6]pyrido[3,4-b]indole-1,4-dione] | 100 to 1000
COc1ccc2[nH]c3c(c2c1)C[C@@]1(C)C(=O)N(CCCN2CCCC2)CC(=O)N1[C@@H]3c1cccc(O)c1 (racemic) [Example 28, (6RS,12aSR)-6-(3-Hydroxy-phenyl)-10-methoxy-12a-methyl-2-(3-pyrrolidin-1-yl-n-propyl)-2,3,6,7,12,12a-hexahydro-pyrazino[1',2':1,6]pyrido[3,4-b]indole-1,4-dione] | 100 to 1000
